Measured values published in patent US20260184707A1, “PHARMACEUTICAL COMPOUNDS FOR THE TREATMENT OF COMPLEMENT MEDIATED DISORDERS” (ALEXION PHARMACEUTICALS, INC., priority 2022, published 2026).

Molecular target: T1, Human complement C1s enzyme (Homo sapiens, UniProt P09871)
T1 construct: purified from human serum, Complement Technology, Inc; purchased Complement Technology, Inc; host or cells: human serum (plasma-derived native protein)
T1 sequence (P09871 438-688 limits assumed): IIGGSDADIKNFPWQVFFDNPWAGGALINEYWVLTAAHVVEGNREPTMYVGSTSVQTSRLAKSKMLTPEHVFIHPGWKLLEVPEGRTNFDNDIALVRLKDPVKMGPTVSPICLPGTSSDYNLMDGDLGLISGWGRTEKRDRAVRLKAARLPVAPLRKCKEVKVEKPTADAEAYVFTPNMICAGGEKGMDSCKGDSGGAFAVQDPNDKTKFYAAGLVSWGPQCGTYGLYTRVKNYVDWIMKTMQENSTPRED
T1 sequence (P09871 16-437 partner limits assumed): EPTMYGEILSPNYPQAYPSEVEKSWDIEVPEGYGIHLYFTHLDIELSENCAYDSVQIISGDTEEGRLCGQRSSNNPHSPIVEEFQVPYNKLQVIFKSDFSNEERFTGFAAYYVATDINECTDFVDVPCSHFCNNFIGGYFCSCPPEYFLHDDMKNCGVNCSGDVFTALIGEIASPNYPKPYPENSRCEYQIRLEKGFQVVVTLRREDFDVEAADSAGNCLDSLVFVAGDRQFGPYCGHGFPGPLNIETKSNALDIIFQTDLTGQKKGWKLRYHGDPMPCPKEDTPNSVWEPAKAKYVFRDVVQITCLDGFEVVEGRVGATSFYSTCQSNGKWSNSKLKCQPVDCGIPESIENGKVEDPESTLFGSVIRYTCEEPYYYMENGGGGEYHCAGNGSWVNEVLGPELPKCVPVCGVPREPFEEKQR
Assay: Human C1s enzyme assay
Assay type: biochemical
Conditions: human complement C1s enzyme 1.16 nM, substrate Z-L-Lys-SBzl, A405; read-out: IC50 (Stars)
Method: The […] values of the compounds of Table 1 were determined with the human C1s enzyme assay described below. Other standard complement assays are also available.
Human complement C1s enzyme (purified from human serum, Complement Technology, Inc.) at 1.16 nM final concentration was incubated with test compound at various concentrations for 5 min at room temperature in 50 mM Tris, 1 M NaCl, pH 7.5. A synthetic substrate Z-L-Lys-SBzl and DTNB (Ellman's reagent) were added to final concentrations of 100 μM each. Absorbance at 405 nm (A405) was recorded at 30 second intervals for […] using a microplate spectrophotometer. IC values were calculated by nonlinear regression of complement C1s reaction rates as a function of test compound concentration.
[…]; ND indicates a compound for which the IC50 value is not determined.

Compound	IC50 [nM]
O=C(CN1C(=O)[C@@H](NCCCc2ccccc2)CC[C@H]1c1ccccc1)NCc1cc2cnccc2[nH]1 (relative stereo) [Compound 489, N-((1H-Pyrrolo[3,2-c]pyridine-2-yl)methyl)-2-((3S*,6S*)-2-oxo-6-phenyl-3-((3-phenylpropyl)amino)piperidin-1-yl)acetamide]	> 1000
C[C@@H](Nc1cnc(-c2ccccc2F)n([C@@H](C)C(=O)NCc2cc3cnccc3[nH]2)c1=O)c1ccc2oc3ccccc3c2c1 (single isomer, unassigned) [Compound 363, (S*)—N-((1H-pyrrolo[3,2-c]pyridine-2-yl)methyl)-2-(5-(((R)-1-(dibenzo[b,d]furan-2-yl)ethyl)amino)-2-(2-fluorophenyl)-6-oxopyrimidin-1(6H)-yl)propenamide]	> 1000
C[C@H](C(=O)NCc1cc2cnccc2[nH]1)n1c(-c2ccccc2F)ncc(N[C@H](C)c2ccc3oc4ccccc4c3c2)c1=O (single isomer, unassigned) [Compound 364, (R*)—N-((1H-pyrrolo[3,2-c]pyridine-2-yl)methyl)-2-(5-(((R)-1-(dibenzo[b,d]furan-2-yl)ethyl)amino)-2-(2-fluorophenyl)-6-oxopyrimidin-1(6H)-yl)propenamide]	> 1000
O=C(Cn1c(-c2ccccc2F)ncc(N[C@H](CF)c2ccc3oc4ccccc4c3c2)c1=O)NCc1cc2cnccc2[nH]1 (single isomer, unassigned) [Compound 375, (S*)—N-((1H-pyrrolo[3,2-c]pyridine-2-yl)methyl)-2-(5-((1-(dibenzo[b,d]furan-2-yl)-2-fluoroethyl)amino)-2-(2-fluorophenyl)-6-oxopyrimidin-1(6H)-yl)acetamide]	< 100
O=C(Cn1c(N2CCCCC2)ncc(NC(CF)c2ccc3oc4ccccc4c3c2)c1=O)NCc1cc2cnccc2[nH]1 (single isomer, unassigned) [Compound 441]	< 100
O=C(Cn1c(-c2ccccc2)ncc(NCCCc2ccccc2)c1=O)NCc1cc2cnccc2[nH]1 [Compound 1, N-((1H-pyrrolo[3,2-c]pyridin-2-yl)methyl)-2-(6-oxo-2-phen-yl-5-((3-phenylpropyl)amino)-pyrimidin-1(6H)-yl)acetamide]	< 100
O=C(Cn1c(-c2ccccc2)ncc(NCCCCc2ccccc2)c1=O)NCc1cc2cnccc2[nH]1 [Compound 2, N-((1H-pyrrolo[3,2-c]pyridin-2-yl)methyl)-2-(6-oxo-2-phen-yl-5-((4-phenylbutyl)amino)-pyrimidin-1(6H)-yl)acetamide]	< 100
O=C(Cn1c(-c2ccccc2)ncc(NCCCCCc2ccccc2)c1=O)NCc1cc2cnccc2[nH]1 [Compound 3, N-((1H-pyrrolo[3,2-c]pyridin-2-yl)methyl)-2-(6-oxo-2-phen-yl-5-((5-phenylpentyl)amino)-pyrimidin-1(6H)-yl)acetamide]	< 100
O=C(Cn1c(-c2ccccc2)ncc(NC(=O)CCCOc2ccccc2)c1=O)NCc1cc2cnccc2[nH]1 [Compound 4, N-(1-(2-(((1H-pyrrolo[3,2-c]pyridin-2-yl)methyl)amino)-2-oxoethyl)-6-oxo-2-phenyl-1,6-dihydropyrimidin-5-yl)-4-phen-oxybutanamide]	< 100
O=C(Cn1c(-c2ccccc2)ncc(NC(=O)CCc2ccccc2)c1=O)NCc1cc2cnccc2[nH]1 [Compound 5, N-(1-(2-(((1H-pyrrolo[3,2-c]pyridin-2-yl)methyl)amino)-2-oxoethyl)-6-oxo-2-phenyl-1,6-dihydropyrimidin-5-yl)-3-phenylpropanamide]	< 100
O=C(Cn1c(-c2ccccc2)ncc(NCCOc2ccccc2)c1=O)NCc1cc2cnccc2[nH]1 [Compound 6, N-((1H-pyrrolo[3,2-c]pyridin-2-yl)methyl)-2-(6-oxo-5-((2-phenoxyethyl)amino)-2-phen-ylpyrimidin-1(6H)-yl)aceamide]	< 100
O=C(Cn1c(-c2ccccc2)ncc(NCCCOc2ccccc2)c1=O)NCc1cc2cnccc2[nH]1 [Compound 7, N-((1H-pyrrolo[3,2-c]pyridin-2-yl)methyl)-2-(6-oxo-5-((3-phenoxypropyl)amino)-2-phenylpyrimidin-1(6H)-yl)-acetamide]	< 100
